According to EP1262190A1, “RFRP-CONTAINING PROLACTIN SECRETION REGULATORY AGENT” (Takeda Chemical Industries, Ltd., priority 2000, dated 2001):
Where no end group is shown, it is not given here.

How the values were obtained:
[1] = target: T1, Human 0T7T022 receptor-expressing CHO cells (Homo sapiens, UniProt Q9GZQ6); test: Agonist activity of RF amide peptides: inhibition of forskolin-increased cAMP in human 0T7T022 receptor-expressing CHO cells; format: cell-based; settings: 1 µM forskolin, 37°C for 30 minutes, FIG. 14
T1 construct: expressed in transfected cells; host or cells: CHO cells
Description: Human 0T7T022 receptor-expressing CHO cells obtained by a modification of the method described in WO 00/29441 were inoculated on a 24-well plate in a concentration of 3 x 10^5 cells/well. After incubation overnight, the cells were rinsed with Hanks' buffer (HBSS) supplemented with 0.05% BSA and 0.2 mM IBMX, and then preincubated at 37°C for 30 minutes in the same buffer. Next, the buffer was exchanged by Hanks' buffer (HBSS) supplemented with 0.05% BSA and 0.2 mM IBMX, or HBSS further added with 1 µM forskolin only, or HBSS added with 1 µM forskolin and peptide of various concentrations, followed by incubation at 37°C for 30 minutes. After completion of the incubation, cAMP in the cells of each well was extracted and quantified according to the method of cAMP EIA Kit (Amersham Inc.). An inhibition rate of the increased cAMP level in the cells by the forskolin treatment was calculated with the respective concentrations of the peptide.

[2] = target: T2, r0T7T022L receptor-expressing CHO cells (Rattus norvegicus, UniProt Q9EP86); test: Reaction of receptor-expressing CHO cells with peptides in the cytosensor (acidification rate); format: cell-based; settings: peptide exposure for 7 minutes and 2 seconds, FIG. 8
T2 construct: expressed in transfected cells; host or cells: CHO cells
From the text: The r0T7T022L receptor-expressing CHO cells obtained in REFERENCE EXAMPLE 7 (2) above were inoculated on capsules for cytosensor in 2.7 x 10^5 cells/capsule. After culturing overnight, the cytosensor was mounted to a work station for the cytosensor. A medium for assay (low buffered RMPI1640 medium supplemented with 0.1% bovine serum albumin), that was set in the flow path of the cytosensor, was supplied to the cells in a pump cycle of ON (80 seconds) and OFF (40 seconds). A rate of change in […] from 8 to 30 seconds after the pump stopped was calculated as an acidification rate. A change of the acidification rate with passage of time was monitored; when stable reading was obtained, the flow path was switched to expose each peptide to the cells for 7 minutes and 2 seconds. In the acidification rate of each well, the data for 3 cycles immediately before the peptide exposure was made 100% for standardization.

[3] = system: pituitary hormone level in plasma; test: Effect of administration into the third ventricle on pituitary hormone level in plasma (radioimmunoassay); format: in vivo, Wistar rats; settings: 10 nmols into the third ventricle; for plasma prolactin level: vs PBS control
[4] = target: T1, Human 0T7T022 receptor-expressing CHO cells; test: Effect of pertussis toxin on activation of human 0T7T022 receptor by RFRP peptide (cAMP production inhibition); format: cell-based; settings: 0.1 µM peptide, 1 µM forskolin, cells treated with 100 ng/ml pertussis toxin, FIG. 15
Description: Human 0T7T022 receptor-expressing CHO cells obtained in EXAMPLE 8 were inoculated on a 24-well plate in a concentration of 1 x 10^5 cells/well. After culturing overnight, the medium was exchanged by a medium added with 100 ng/ml pertussis toxin (Sigma, Inc.) or with a control medium followed by further incubation overnight. The cells were rinsed with Hanks' buffer (HBSS) supplemented with 0.05% BSA and 0.2 mM IBMX and then preincubated at 37°C for 30 minutes in the same buffer. Next, the cells were incubated at 37°C for 30 minutes after the buffer was exchanged by Hanks' buffer alone (HBSS) supplemented with 0.05% BSA and 0.2 mM IBMX (black column), or by HBSS further added with 1 µM forskolin only (white column), or by HBSS added with 1 µM forskolin and 0.1 µM RFRP-1-12 (peptide having the 81 (Met) to 92 (Phe) amino acid sequence in SEQ ID NO:1) (hatched column). After completion of the incubation, cAMP in the cells of each well was extracted and quantified according to the method of cAMP EIA Kit (Amersham, Inc.).

T1 sequence (Q9GZQ6 whole entry): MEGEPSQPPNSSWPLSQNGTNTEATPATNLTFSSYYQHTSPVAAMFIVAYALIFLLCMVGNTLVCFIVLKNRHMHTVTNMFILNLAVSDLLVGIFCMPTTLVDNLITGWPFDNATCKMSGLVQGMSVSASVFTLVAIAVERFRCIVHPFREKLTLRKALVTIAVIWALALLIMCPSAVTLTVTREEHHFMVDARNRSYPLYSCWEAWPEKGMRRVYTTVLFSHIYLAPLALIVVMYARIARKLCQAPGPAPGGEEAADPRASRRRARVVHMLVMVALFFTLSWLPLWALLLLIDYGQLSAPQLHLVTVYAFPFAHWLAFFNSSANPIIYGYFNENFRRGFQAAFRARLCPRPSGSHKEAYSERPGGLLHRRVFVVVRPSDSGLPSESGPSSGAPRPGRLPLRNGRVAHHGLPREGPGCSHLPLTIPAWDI
T2 sequence (Q9EP86 whole entry): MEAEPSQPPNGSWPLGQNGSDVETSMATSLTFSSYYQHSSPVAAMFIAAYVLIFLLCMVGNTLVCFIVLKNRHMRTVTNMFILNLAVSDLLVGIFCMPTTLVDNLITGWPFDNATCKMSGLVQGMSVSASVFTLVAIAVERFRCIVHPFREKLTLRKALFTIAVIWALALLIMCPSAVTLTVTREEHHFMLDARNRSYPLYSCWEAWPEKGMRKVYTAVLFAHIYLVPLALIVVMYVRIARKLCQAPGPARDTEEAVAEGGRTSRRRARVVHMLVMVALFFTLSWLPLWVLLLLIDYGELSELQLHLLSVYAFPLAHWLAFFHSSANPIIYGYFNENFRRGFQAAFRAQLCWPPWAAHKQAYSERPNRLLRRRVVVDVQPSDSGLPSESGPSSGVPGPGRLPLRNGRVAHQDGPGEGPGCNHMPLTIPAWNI

Pro-Gln-Arg-Phe-NH2 (PQRF-NH2) [PQRFamide, reference compound]
ED50 levels (inhibition rate of the increased cAMP level in the cells by the forskolin treatment) [1]: ≥ 1000 nM

rRFRP-1-37: peptide having the 58 (Ser) to 94 (Phe) amino acid sequence in SEQ ID NO:50 (SVTFQELKDWGAKKDIKMSPAPANKVPHSAANLPLRF; UniProt Q9ESQ9 58-94, looked up, fragment)
ED50 levels (inhibition rate of the increased cAMP level in the cells by the forskolin treatment) [1]: 30 nM

CC(C)C[C@H](NC(=O)[C@H](CC(N)=O)NC(=O)[C@@H]1CCCN1C(=O)[C@@H](N)C(C)C)C(=O)N1CCC[C@H]1C(=O)N[C@@H](CCC(N)=O)C(=O)N[C@@H](CCCNC(=N)N)C(=O)N[C@@H](Cc1ccccc1)C(N)=O
reaction of r0T7T022L-expressing CHO cells (acidification rate) [2]: strongly showed dose-dependent reaction

Asn-Pro-Phe-Phe [NPFF, reference compound]
ED50 levels (inhibition rate of the increased cAMP level in the cells by the forskolin treatment) [1]: 140 nM

hRFRP-1-37: peptide having the 56 (Ser) to 92 (Phe) amino acid sequence in SEQ ID NO:1 (SLNFEELKDWGPKNVIKMSTPAVNKMPHSFANLPLRF; UniProt Q9HCQ7 56-92, looked up, fragment)
ED50 levels (inhibition rate of the increased cAMP level in the cells by the forskolin treatment) [1]: 21 nM

MPHSFANLPLRF-NH2
level of ACTH in plasma [3]: none showed any significant change | level of GH in plasma [3]: none showed any significant change | level of LH in plasma [3]: none showed any significant change | level of TSH in plasma [3]: none showed any significant change | plasma prolactin level ([3]; 10 minutes after administration): tended to increase | plasma prolactin level ([3]; 20 minutes after administration): significantly increased | plasma prolactin level ([3]; 30 minutes after administration): significantly increased | plasma prolactin level ([3]; 40 minutes after administration): significantly increased | plasma prolactin level ([3]; 60 minutes after administration): a significant difference was noted | cAMP production inhibiting activity [4]: lost | reaction of r0T7T022L-expressing CHO cells (acidification rate) [2]: strongly showed dose-dependent reaction
